Results published in publication PMC3163471 (MedChemComm, 2011).

Tested on: breast cancer cell lines
Experiment: Antiproliferative activity, cell line not given
Format: cell-based, human
Details: text on structure-activity relationship, Tables 1 and 2

Row | Substance | Antiproliferative activity in words, compared with compound 5 or the parent
1 | H-Arg-Pro-[3-amino-3(1-napthyl)-propionic acid]-Tyr-OH [Compound 13] | activity was lost
2 | H-Arg-[3-amino-3(1-napthyl)-propionic acid]-Asp-OH [Compound 7] | loss of activity
3 | H-Arg-[3-amino-3(1-napthyl)-propionic acid]-Tyr-OH [Compound 6] | loss of activity
4 | H-Arg-[3-amino-3(biphenyl)-propionic acid]-Phe-OH [Compound 10] | retained the activity and specificity
5 | H-Lys-[3-amino-3(biphenyl)-propionic acid]-Phe-OH [Compound 11] | loss of activity
